Measurements published in patent US20240083897A1, “GCN2 MODULATING COMPOUNDS AND USES THEREOF” (HiberCell, Inc., priority 2021, published 2024).
Read-outs that look alike come from different tables or passages of the source.

Target: GCN2 (Homo sapiens (Human), UniProt Q9P2K8)
Assay: TR-FRET biochemical assay for inhibition of GCN2
[1] = GCN2 2 nM, 100 nM GFP-eIF2a, 150 μM ATP, TR-FRET

Sequence of GCN2 (Q9P2K8 whole entry): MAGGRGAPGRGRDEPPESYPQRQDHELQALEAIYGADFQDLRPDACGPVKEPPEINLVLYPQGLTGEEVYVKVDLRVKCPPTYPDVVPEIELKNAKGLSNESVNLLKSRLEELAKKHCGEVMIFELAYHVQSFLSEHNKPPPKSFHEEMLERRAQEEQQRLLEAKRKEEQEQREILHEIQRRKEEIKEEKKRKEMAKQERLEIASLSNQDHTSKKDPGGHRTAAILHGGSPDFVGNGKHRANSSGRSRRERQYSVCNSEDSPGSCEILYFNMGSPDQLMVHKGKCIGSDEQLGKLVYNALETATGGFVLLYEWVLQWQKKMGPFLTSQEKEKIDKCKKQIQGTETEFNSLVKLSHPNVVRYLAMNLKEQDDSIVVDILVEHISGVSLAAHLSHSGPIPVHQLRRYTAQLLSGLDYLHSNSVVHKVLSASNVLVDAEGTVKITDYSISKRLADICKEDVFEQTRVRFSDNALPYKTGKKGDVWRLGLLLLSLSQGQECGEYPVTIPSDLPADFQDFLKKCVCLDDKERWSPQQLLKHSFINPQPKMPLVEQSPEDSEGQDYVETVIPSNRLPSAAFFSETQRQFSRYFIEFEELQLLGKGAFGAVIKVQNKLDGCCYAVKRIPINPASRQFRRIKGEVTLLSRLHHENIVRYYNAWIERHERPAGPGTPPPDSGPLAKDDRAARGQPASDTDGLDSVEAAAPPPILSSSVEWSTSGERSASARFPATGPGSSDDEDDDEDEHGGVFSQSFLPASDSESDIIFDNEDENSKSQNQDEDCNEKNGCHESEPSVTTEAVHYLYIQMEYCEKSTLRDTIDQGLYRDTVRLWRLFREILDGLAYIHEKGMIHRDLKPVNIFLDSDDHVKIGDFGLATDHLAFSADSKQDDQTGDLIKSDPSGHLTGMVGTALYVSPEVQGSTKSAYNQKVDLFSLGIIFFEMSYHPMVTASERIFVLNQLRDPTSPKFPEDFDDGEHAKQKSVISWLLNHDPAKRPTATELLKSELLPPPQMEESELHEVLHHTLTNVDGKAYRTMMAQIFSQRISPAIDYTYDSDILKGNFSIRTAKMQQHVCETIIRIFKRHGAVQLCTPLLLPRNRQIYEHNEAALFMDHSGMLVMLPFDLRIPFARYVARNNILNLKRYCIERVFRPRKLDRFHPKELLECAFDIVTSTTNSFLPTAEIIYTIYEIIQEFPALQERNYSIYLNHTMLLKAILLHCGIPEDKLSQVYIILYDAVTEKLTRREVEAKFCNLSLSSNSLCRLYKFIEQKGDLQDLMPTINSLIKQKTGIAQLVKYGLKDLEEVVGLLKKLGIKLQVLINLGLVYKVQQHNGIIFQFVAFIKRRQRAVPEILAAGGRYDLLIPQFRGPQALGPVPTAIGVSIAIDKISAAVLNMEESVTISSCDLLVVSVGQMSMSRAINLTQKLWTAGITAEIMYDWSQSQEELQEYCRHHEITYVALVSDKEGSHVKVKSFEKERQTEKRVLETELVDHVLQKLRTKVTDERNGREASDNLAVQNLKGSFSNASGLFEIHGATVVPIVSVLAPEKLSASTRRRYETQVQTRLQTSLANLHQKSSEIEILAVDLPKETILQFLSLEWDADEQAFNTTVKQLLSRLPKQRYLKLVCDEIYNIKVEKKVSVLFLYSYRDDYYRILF

Row | SMILES | IC50 [1] [nM] | IC50 [nM]
1 | COc1ncc(Cl)cc1S(=O)(=O)Nc1ccc(F)c(-c2ccc3c(-c4ncc(C)[nH]4)ncn3c2)c1F [Compound 48, 5-chloro-N-[2,4-difluoro-3-[1-(4-methyl-3H-imidazol-2-yl)imidazo[1,5-a]pyridine-6-yl]phenyl]-2-methoxypyridine-3-sulfonamide] | < 50 | –
2 | COc1ncc(Cl)cc1S(=O)(=O)Nc1ccc(F)c(-c2ccc3c(-c4ncc(CO)[nH]4)ncn3c2)c1F [Compound 49, 5-chloro-N-(2,4-difluoro-3-[1-[4-(hydroxymethyl)-3H-imidazol-2-yl]imidazo[1,5-a]pyridin-6-yl]phenyl)-2-methoxypyridine-3-sulfonamide] | < 50 | –
3 | Cc1cnc(-c2ncn3cc(-c4c(F)ccc(NS(=O)(=O)c5cc(F)cnc5C)c4F)ccc23)[nH]1 [Compound 50, N-[2,4-difluoro-3-[1-(4-methyl-3H-imidazol-2-yl)imidazo[1,5-a]pyridin-6-yl]phenyl]-5-fluoro-2-methylpyridine-3-sulfonamide] | < 50 | –
4 | Cc1ncc(F)cc1S(=O)(=O)Nc1ccc(F)c(-c2ccc3c(-c4ncc(CO)[nH]4)ncn3c2)c1F [Compound 51, N-(2,4-difluoro-3-[1-[4-(hydroxymethyl)-3H-imidazol-2-yl]imidazo[1,5-a]pyridin-6-yl]phenyl)-5-fluoro-2-methylpyridine-3-sulfonamide] | < 50 | –
5 | COc1ncc(Cl)cc1S(=O)(=O)Nc1ccc(F)c(-c2ccc3c(-c4nc(Cl)c[nH]4)ncn3c2)c1F [Compound 52, 5-chloro-N-[3-[1-(4-chloro-1H-imidazol-2-yl)imidazo[1,5-a]pyridin-6-yl]-2,4-difluorophenyl]-2-methoxypyridine-3-sulfonamide] | < 50 | –
6 | COc1ncc(C#N)cc1S(=O)(=O)Nc1ccc(F)c(-c2ccc3c(-c4ccn(C)n4)ncn3c2)c1F [Compound 53, 5-cyano-N-[2,4-difluoro-3-[1-(1-methylpyrazol-3-yl)imidazo[1,5-a]pyridin-6-yl]phenyl]-2-methoxypyridine-3-sulfonamide] | – | 50 to 500
7 | Cc1ncc(F)cc1S(=O)(=O)Nc1ccc(F)c(-c2ccc3c(-c4ccn(C)n4)ncn3c2)c1F [Compound 54, N-[2,4-difluoro-3-[1-(1-methylpyrazol-3-yl)imidazo[1,5-a]pyridin-6-yl]phenyl]-5-fluoro-2-methylpyridine-3-sulfonamide] | – | 50 to 500
8 | COc1ncc(Cl)cc1S(=O)(=O)Nc1ccc(F)c(-c2ccc3c(-n4ccnn4)ncn3c2)c1F [Compound 55-1, 5-chloro-N-[2,4-difluoro-3-[1-(1,2,3-triazol-1-yl)imidazo[1,5-a]pyridin-6-yl]phenyl]-2-methoxypyridine-3-sulfonamide] | < 50 | –
9 | COc1ncc(Cl)cc1S(=O)(=O)Nc1ccc(F)c(-c2ccc3c(-n4nccn4)ncn3c2)c1F [Compound 55-2, 5-chloro-N-[2,4-difluoro-3-[1-(1,2,3-triazol-2-yl)imidazo[1,5-a]pyridin-6-yl]phenyl]-2-methoxypyridine-3-sulfonamide] | – | 500 to 1000
10 | Cc1cnc(-c2ncn3cc(-c4c(F)ccc(NS(=O)(=O)c5cc(Cl)cnc5C)c4F)ccc23)[nH]1 [Compound 56, 5-chloro-N-[2,4-difluoro-3-[1-(4-methyl-3H-imidazol-2-yl)imidazo[1,5-a]pyridine-6-yl]phenyl]-2-methylpyridine-3-sulfonamide] | < 50 | –
11 | COc1ncc(Cl)cc1S(=O)(=O)Nc1ccc(F)c(-c2ccc3c(-c4nnc(C)[nH]4)ncn3c2)c1F [Compound 57, 5-chloro-N-[2,4-difluoro-3-[1-(5-methyl-4H-1,2,4-triazol-3-yl)imidazo[1,5-a]pyridin-6-yl]phenyl]-2-methoxypyridine-3-sulfonamide] | < 50 | –
12 | COc1ncc(F)cc1S(=O)(=O)Nc1ccc(F)c(-c2ccc3c(-c4nnc(C)[nH]4)ncn3c2)c1F [Compound 58, N-[2,4-difluoro-3-[1-(5-methyl-4H-1,2,4-triazol-3-yl)imidazo[1,5-a]pyridin-6-yl]phenyl]-5-fluoro-2-methoxypyridine-3-sulfonamide] | < 50 | –
13 | COc1ncc(C#N)cc1S(=O)(=O)Nc1ccc(F)c(-c2ccc3c(-c4nnc(C)[nH]4)ncn3c2)c1F [Compound 59, 5-cyano-N-[2,4-difluoro-3-[1-(5-methyl-4H-1,2,4-triazol-3-yl)imidazo[1,5-a]pyridin-6-yl]phenyl]-2-methoxypyridine-3-sulfonamide] | < 50 | –
14 | Cc1nnc(-c2ncn3cc(-c4c(F)ccc(NS(=O)(=O)c5cc(F)cnc5C)c4F)ccc23)[nH]1 [Compound 60, N-[2,4-difluoro-3-[1-(5-methyl-4H-1,2,4-triazol-3-yl)imidazo[1,5-a]pyridin-6-yl]phenyl]-5-fluoro-2-methylpyridine-3-sulfonamide] | < 50 | –
15 | Cc1nnc(-c2ncn3cc(-c4c(F)ccc(NS(=O)(=O)c5cc(Cl)cnc5C)c4F)ccc23)[nH]1 [Compound 61, 5-chloro-N-[2,4-difluoro-3-[1-(5-methyl-4H-1,2,4-triazol-3-yl)imidazo[1,5-a]pyridin-6-yl]phenyl]-2-methylpyridine-3-sulfonamide] | < 50 | –
16 | Cc1ncc(Cl)cc1S(=O)(=O)Nc1ccc(F)c(-c2ccc3c(-c4ccn(C)n4)ncn3c2)c1F [Compound 62, 5-chloro-N-[2,4-difluoro-3-[1-(1-methylpyrazol-3-yl)imidazo[1,5-a]pyridin-6-yl]phenyl]-2-methylpyridine-3-sulfonamide] | < 50 | –
17 | COc1ncc(Cl)cc1S(=O)(=O)Nc1ccc(F)c(-c2ccc3c(-n4cnnn4)ncn3c2)c1F [Compound 63, 5-chloro-N-[2,4-difluoro-3-[1-(1,2,3,4-tetrazol-1-yl)imidazo[1,5-a]pyridin-6-yl]phenyl]-2-methoxypyridine-3-sulfonamide] | < 50 | –
18 | COc1ncc(Cl)cc1S(=O)(=O)Nc1ccc(F)c([C@@H]2CCn3c(cnc3-c3ncc[nH]3)C2)c1F [Compound 64-1, (R)—N-(3-(3-(1H-imidazol-2-yl)-5,6,7,8-tetrahydroimidazo[1,5-a]pyridin-7-yl)-2,4-difluorophenyl)-5-chloro-2-methoxypyridine-3-sulfonamide] | < 50 | –
19 | COc1ncc(Cl)cc1S(=O)(=O)Nc1ccc(F)c([C@H]2CCn3c(cnc3-c3ncc[nH]3)C2)c1F [Compound 64-2, (S)—N-(3-(3-(1H-imidazol-2-yl)-5,6,7,8-tetrahydroimidazo[1,5-a]pyridin-7-yl)-2,4-difluorophenyl)-5-chloro-2-methoxypyridine-3-sulfonamide] | < 50 | –
20 | Cc1ncc(Cl)cc1S(=O)(=O)Nc1ccc(F)c(-c2ccc3c(-c4nnc[nH]4)ncn3c2)c1F [Compound 65, 5-chloro-N-[2,4-difluoro-3-[1-(4H-1,2,4-triazol-3-yl)imidazo[1,5-a]pyridin-6-yl]phenyl]-2-methylpyridine-3-sulfonamide] | < 50 | –
21 | COc1ncc(C#N)cc1S(=O)(=O)Nc1ccc(F)c(-c2ccc3c(-c4nc5ccccc5[nH]4)ncn3c2)c1F [Compound 66, N-[3-[1-(1H-1,3-benzodiazol-2-yl)imidazo[1,5-a]pyridin-6-yl]-2,4-difluorophenyl]-5-cyano-2-methoxypyridine-3-sulfonamide] | < 50 | –
22 | CNC(=O)c1ncn2c1CC[C@H](c1c(F)ccc(NS(=O)(=O)c3cc(C#N)cnc3OC)c1F)C2 [Compound 68-1, (R)-6-(3-((5-cyano-2-methoxypyridine)-3-sulfonamido)-2,6-difluorophenyl)-N-methyl-5,6,7,8-tetrahydroimidazo[1,5-a]pyridine-1-carboxamide] | – | 50 to 500
23 | CNC(=O)c1ncn2c1CC[C@@H](c1c(F)ccc(NS(=O)(=O)c3cc(C#N)cnc3OC)c1F)C2 [Compound 68-2, (S)-6-(3-((5-cyano-2-methoxypyridine)-3-sulfonamido)-2,6-difluorophenyl)-N-methyl-5,6,7,8-tetrahydroimidazo[1,5-a]pyridine-1-carboxamide] | – | 50 to 500
24 | COc1ncc(C#N)cc1S(=O)(=O)Nc1ccc(F)c(-c2cn3cnc(-c4ncc[nH]4)c3cn2)c1F [Compound 69, 5-cyano-N-[2,4-difluoro-3-[1-(1H-imidazol-2-yl)imidazo[1,5-a]pyrazin-6-yl]phenyl]-2-methoxypyridine-3-sulfonamide] | < 50 | –
25 | COc1ncc(F)cc1S(=O)(=O)Nc1ccc(F)c(-c2ccc3c(-c4nnc[nH]4)ncn3c2)c1F [Compound 70, N-[2,4-difluoro-3-[1-(4H-1,2,4-triazol-3-yl)imidazo[1,5-a]pyridin-6-yl]phenyl]-5-fluoro-2-methoxypyridine-3-sulfonamide] | < 50 | –
26 | COc1ncc(C#N)cc1S(=O)(=O)Nc1ccc(F)c(-c2ccc3c(-c4nnc[nH]4)ncn3c2)c1F [Compound 71, 5-cyano-N-[2,4-difluoro-3-[1-(4H-1,2,4-triazol-3-yl)imidazo[1,5-a]pyridin-6-yl]phenyl]-2-methoxypyridine-3-sulfonamide] | < 50 | –
27 | Cc1ncc(F)cc1S(=O)(=O)Nc1ccc(F)c(-c2ccc3c(-c4nnc[nH]4)ncn3c2)c1F [Compound 72, N-[2,4-difluoro-3-[1-(4H-1,2,4-triazol-3-yl)imidazo[1,5-a]pyridin-6-yl]phenyl]-5-fluoro-2-methylpyridine-3-sulfonamide] | < 50 | –
28 | COc1ncc(Cl)cc1S(=O)(=O)Nc1ccc(F)c([C@@H]2Cn3cnc(-c4ncc[nH]4)c3CN2C)c1F [Compound 73-1, 5-chloro-N-[2,4-difluoro-3-[(6R)-1-(1H-imidazol-2-yl)-7-methyl-5H,6H,8H-imidazo[1,5-a]pyrazin-6-yl]phenyl]-2-methoxypyridine-3-sulfonamide] | – | 50 to 500
29 | COc1ncc(Cl)cc1S(=O)(=O)Nc1ccc(F)c([C@H]2Cn3cnc(-c4ncc[nH]4)c3CN2C)c1F [Compound 73-2, 5-chloro-N-[2,4-difluoro-3-[(6S)-1-(1H-imidazol-2-yl)-7-methyl-5H,6H,8H-imidazo[1,5-a]pyrazin-6-yl]phenyl]-2-methoxypyridine-3-sulfonamide] | – | 50 to 500
30 | COc1ncc(F)cc1S(=O)(=O)Nc1ccc(F)c(-c2ccc3c(-n4cnnn4)ncn3c2)c1F [Compound 74, N-[2,4-difluoro-3-[1-(1,2,3,4-tetrazol-1-yl)imidazo[1,5-a]pyridin-6-yl]phenyl]-5-fluoro-2-methoxypyridine-3-sulfonamide] | < 50 | –
